Measurements: paper PMC10182713 (South African Journal of Botany, 2023)
Converted amounts (≈) assume the structure as drawn.

How the values were obtained:
HepG2 cells = details: tert-butyl hyperoxide induced-toxicity on HepG2 cells; ref Kim et al. (2011); cited from earlier work
M. bovis (ATCC 27290) = assay: microbe, parasite or virus in culture; format: cell-based, Mycobacterium bovis; details: for MIC: Mycobacterium tuberculosis variant bovis, ATCC27290, read-out: MIC M. bovis
[1] = test system: M. tuberculosis H37RV (ATCC 27294); assay: microbe, parasite or virus in culture; format: cell-based, Mycobacterium tuberculosis; details: for MIC: Mycobacterium tuberculosis, ATCC27294|H37RV, read-out: MIC M. tb H37Rv
[2] = test system: Mycobacterium smegmatis (ATCC 1441); assay: microbe, parasite or virus in culture; format: cell-based; details: for MIC: Mycolicibacterium smegmatis, ATCC1441, 24 h, read-out: MIC M. smegmatis
[3] = test system: pathogenic and non-pathogenic Mycobacterium strains; format: cell-based
Mycobacterium = details: antimycobacterial activity; ref Boonphong et al., 2007; cited from earlier work
M. aurum (NCTC 10437) = assay: microbe, parasite or virus in culture; format: cell-based, Mycobacterium aurum; details: Mycolicibacterium aurum, NCTC10437, read-out: MIC M. aurum
M. fortuitum (ATCC 6841) = assay: microbe, parasite or virus in culture; format: cell-based, Mycobacterium fortuitum; details: Mycolicibacterium fortuitum, ATCC6841, 24 h, read-out: MIC M. fortuitum
Vero monkey kidney cells = format: cell-based
HepG2 liver cells = details: human
in vitro = details: human, Cell viability of HepG2 cells treated with the toxicant alone
Caco-2 cells = format: cell-based, human
C3A cells = format: cell-based

O=c1c(O)c(-c2ccc(O)c(O)c2)oc2cc(O)cc(O)c12 [quercetin]
Hepatoprotective activity in words (HepG2 cells): significant hepatoprotective activity

O=c1c(O[C@@H]2O[C@@H](CO)[C@H](O)[C@H]2O)c(-c2ccc(O)c(O)c2)oc2cc(O)cc(O)c12 [avicularin]
Hepatoprotective activity in words (HepG2 cells): significant hepatoprotective activity

4′-methoxykaempferol
MIC M. bovis (M. bovis (ATCC 27290)): 125 µg/mL | MIC M. tb H37Rv [1]: 125 µg/mL | MIC M. smegmatis [2]: 250 µg/mL | Antimycobacterial activity in words [3]: weak

COc1cc2oc(-c3ccc(O)cc3O)c(CC=C(C)C)c(=O)c2c(O)c1/C=C/C(C)C [artocarpin]
MIC (Mycobacterium): 3 µg/mL (≈ 6.87 µM)

O=c1c(O[C@@H]2O[C@H](CO)[C@@H](O)[C@H](O)[C@H]2O)c(-c2ccc(O)c(O)c2)oc2cc(O)cc(O)c12 [hirsutrin]
Hepatoprotective activity in words (HepG2 cells): significant hepatoprotective activity

CO[C@H]1/C=C/O[C@@]2(C)Oc3c(C)c(O)c4c(O)c(c(/C=N/N5CCN(C)CC5)c(O)c4c3C2=O)NC(=O)/C(C)=C\C=C\[C@H](C)[C@H](O)[C@@H](C)[C@@H](O)[C@@H](C)[C@H](OC(C)=O)[C@@H]1C [Rif (+ve con), rifampicin, reference compound]
MIC (M. bovis (ATCC 27290)): 4 µg/mL (≈ 4.86 µM) | MIC [1]: 0.24 µg/mL (≈ 0.292 µM) | MIC (M. aurum (NCTC 10437)): 4 µg/mL (≈ 4.86 µM) | MIC (M. fortuitum (ATCC 6841)): 63 µg/mL (≈ 76.6 µM) | MIC [2]: 3.9 µg/mL (≈ 4.74 µM) | Selectivity index LC50/MIC M. aurum (Vero monkey kidney cells): 23.500 | Selectivity index LC50/MIC M. bovis (Vero monkey kidney cells): 23.500 | Selectivity index LC50/MIC M. fortuitum (Vero monkey kidney cells): 1.492 | Selectivity index LC50/MIC M. smegmatis (Vero monkey kidney cells): 24.103 | Selectivity index LC50/MIC M. tb H37RV (Vero monkey kidney cells): >100 | Cell viability of HepG2 cells treated with the toxicant alone (HepG2 liver cells): 65.27±0.184% | viability (in vitro): 65%

COc1ccc(C2CC(=O)c3c(OC)cc(OC)cc3O2)cc1 (stereo not drawn) [5,7,4′-trimethoxy flavanone]
MIC (M. bovis (ATCC 27290)): 63 µg/mL (≈ 200 µM) | MIC [1]: 31 µg/mL (≈ 98.6 µM) | MIC (M. fortuitum (ATCC 6841)): 63 µg/mL (≈ 200 µM) | MIC [2]: 63 µg/mL (≈ 200 µM) | Selectivity index LC50/MIC M. bovis (Vero monkey kidney cells): 3.206 | Selectivity index LC50/MIC M. fortuitum (Vero monkey kidney cells): 3.206 | Selectivity index LC50/MIC M. smegmatis (Vero monkey kidney cells): 3.206 | Selectivity index LC50/MIC M. bovis (Caco-2 cells): 3.175 | Selectivity index LC50/MIC M. fortuitum (Caco-2 cells): 3.175 | Selectivity index LC50/MIC M. smegmatis (Caco-2 cells): 3.175 | Selectivity index LC50/MIC M. tb H37RV (Caco-2 cells): 6.452 | Selectivity index LC50/MIC M. bovis (C3A cells): 3.174 | Selectivity index LC50/MIC M. fortuitum (C3A cells): 3.174 | Selectivity index LC50/MIC M. smegmatis (C3A cells): 3.174 | Selectivity index LC50/MIC M. tb H37RV (C3A cells): 6.452 | Antimycobacterial activity in words [3]: good activity | Percentage hepatoprotective activity (cell viability) (HepG2 liver cells): 85.674±0.0618%

COc1ccc(-c2oc3cc(OC)cc(O)c3c(=O)c2OC)cc1 [5‑hydroxy-3,7,4′-trimethoxyflavone]
MIC (M. bovis (ATCC 27290)): 63 µg/mL (≈ 192 µM) | MIC [1]: 63 µg/mL (≈ 192 µM) | MIC (M. fortuitum (ATCC 6841)): 63 µg/mL (≈ 192 µM) | MIC [2]: 63 µg/mL (≈ 192 µM) | Selectivity index LC50/MIC M. fortuitum (Vero monkey kidney cells): 3.127 | Selectivity index LC50/MIC M. smegmatis (Vero monkey kidney cells): 3.127 | Selectivity index LC50/MIC M. tb H37RV (Vero monkey kidney cells): 3.127 | Selectivity index LC50/MIC M. bovis (Caco-2 cells): 2.524 | Selectivity index LC50/MIC M. fortuitum (Caco-2 cells): 2.524 | Selectivity index LC50/MIC M. smegmatis (Caco-2 cells): 2.524 | Selectivity index LC50/MIC M. tb H37RV (Caco-2 cells): 2.524 | Selectivity index LC50/MIC M. bovis (C3A cells): 3.174 | Selectivity index LC50/MIC M. fortuitum (C3A cells): 3.174 | Selectivity index LC50/MIC M. smegmatis (C3A cells): 3.174 | Selectivity index LC50/MIC M. tb H37RV (C3A cells): 3.174 | Antimycobacterial activity in words [3]: good activity | Percentage hepatoprotective activity (cell viability) (HepG2 liver cells): 89.277±0.023%

chaplashin
MIC (Mycobacterium): 3 µg/mL

[H]/N=C(/N)N[C@H]1[C@H](O)[C@@H](O)[C@H](O[C@@H]2O[C@@H](C)[C@](O)(C=O)[C@H]2O[C@@H]2O[C@@H](CO)[C@H](O)[C@@H](O)[C@@H]2NC)[C@@H](N/C(N)=N\[H])[C@@H]1O [Strep (+ve con), streptomycin, reference compound]
MIC (M. bovis (ATCC 27290)): 4 µg/mL (≈ 6.88 µM) | MIC [1]: 0.24 µg/mL (≈ 0.413 µM) | MIC (M. aurum (NCTC 10437)): 4 µg/mL (≈ 6.88 µM) | MIC (M. fortuitum (ATCC 6841)): > 1000 µg/mL | MIC [2]: 3.9 µg/mL (≈ 6.71 µM)
